Earlier results, collected in PMC11302729, “Repurposing Hsp90 inhibitors as antimicrobials targeting two-component systems identifies compounds leading to loss of bacterial membrane integrity” (Microbiology Spectrum, 2024).

Legend:
[1] = system: CckA from Caulobacter crescentus; set-up: method as in PMID 29110989; settings: cited from earlier work
[2] = system: PhoQ from Salmonella typhimurium; set-up: method as in PMID 29110989; settings: cited from earlier work

CCc1cc(-c2n[nH]c(C)c2-c2ccc3c(c2)OCCO3)c(O)cc1O [CCT018159]
IC50 [1]: 30 µM | IC50 [2]: 261 µM

COc1ccc(-c2c(-c3cc(Cl)c(O)cc3O)n[nH]c2C)cc1 [Compound 5b]
IC50 [1]: 14 µM | IC50 [2]: 238 µM
